Values after ≈ are worked out from the molar mass of the structure shown. Values joined by “and” are separate entries in the source; they are usually repeats but may differ in a detail not shown here. Identical values can stand only once. Like-named read-outs stand apart in the source and are kept apart here. Marks after values point to notes of the source that are not given here.
Key:
[1] = test system: Staphylococcus aureus; assay: Antibacterial susceptibility testing (MIC/MBC), S. aureus; assay type: cell-based; conditions: Staphylococcus aureus; for MBC: read-out: MBC S. aureus DSM 20231
Method: (§1) Minimal inhibitory concentrations (MICs) were determined following a standard double-dilution method. […] For S. pneumoniae MICs were determined by adapting the standard double-dilution method to anaerobic conditions and of this microorganism (use of Todd Hewitt Yeast extract with 200 U/mL of catalase and continuous monitoring of growth).

[2] = test system: Staphylococcus epidermidis; assay: Antibacterial susceptibility testing (MIC/MBC), S. epidermidis; assay type: cell-based; conditions: for MBC / MIC: Staphylococcus epidermidis; for MIC S. epidermidis DSM 20044: strain DSM 20044
Method: as §1

[3] = test system: Klebsiella pneumoniae; assay: Antibacterial susceptibility testing (MIC), K. pneumoniae; assay type: cell-based; conditions: Klebsiella pneumoniae, ATCC700603, strain ATCC 700603
Method: (§2) Bacterial strains used in this study for antibacterial susceptibility testing (Table S5) were propagated using standard microbiological procedures. Minimal inhibitory concentrations (MICs) were determined following a standard double-dilution method. MICs were recorded as the lowest concentration of the compound where no visible growth was observed. After plating the dilutions around the MIC or growing them in fresh MH media, minimal bactericidal concentration (MBC) was recorded as the lowest concentration of the compound at which no colonies were formed or no growth was observed, respectively. For S. pneumoniae MICs were determined by adapting the standard double-dilution method to anaerobic conditions and of this microorganism (use of Todd Hewitt Yeast extract with 200 U/mL of catalase and continuous monitoring of growth).

[4] = molecular target: T1, S. pneumoniae WalK (Streptococcus pneumoniae, UniProt Q8DPL8); assay: In vitro autophosphorylation kinase assay with γ-32P-ATP, WalK; assay type: biochemical; conditions: autophosphorylation, one time point (30 sec), 10% DMSO
T1 construct: WalK (amino acids from 208 to 449); N-terminal His6-3C site of vector pOPINF (own knowledge of the vector); made in house; host or cells: E. coli RIL
T1 sequence (Q8DPL8 208-449): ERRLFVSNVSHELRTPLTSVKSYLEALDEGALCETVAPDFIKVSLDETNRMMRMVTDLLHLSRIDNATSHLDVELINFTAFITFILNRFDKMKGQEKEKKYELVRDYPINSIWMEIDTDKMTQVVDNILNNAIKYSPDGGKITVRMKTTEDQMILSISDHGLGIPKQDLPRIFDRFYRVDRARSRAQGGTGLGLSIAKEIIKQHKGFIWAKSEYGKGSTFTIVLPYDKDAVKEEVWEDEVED
Method: (§3) To evaluate the inhibitory capacity of selected hits from DSF, SBVS and LBSS in vitro autophosphorylation kinase assays with γ-^32P-ATP were performed as previously described. Ligands were dissolved in 100% DMSO. […] Controls lacking ligands contained an equal concentration of DMSO. Inhibition of autophosphorylation was determined by incubating 0.12 mg/ml (≈4 μM) HK and up to 20 mM fragment in kinase buffer (50 mM Tris HCl, pH 8.5, 50 mM KCl, 5 mM MgCl2, 0.5 mM EDTA and 0.1 mM DTT). Autophosporylation reactions were initiated by addition of 0.1 μCi/μl γ-^32P-ATP containing from 0.03 to 0.06 μM ATP (final concentrations). Autophosphorylation was quenched with 2xSDS-PAGE sample buffer supplemented with 50 mM EDTA. […] After electrophoresis, the bottoms of the gels were removed to lower the background from the unincorporated radiolabeled ATP. Gels were dried without staining on a Bio-Rad Gel Air drying system and the phosphorylated protein was quantified by phosphor-imaging. Prism GraphPad was used for curve fitting and statistical analysis.

[5] = test system: Pseudomonas aeruginosa; assay: Antibacterial susceptibility testing (MIC), P. aeruginosa; assay type: cell-based; conditions: Pseudomonas aeruginosa, ATCC27853; strain ATCC 27853
Method: as §2

[6] = test system: Streptococcus suis; assay: Antibacterial susceptibility testing (MIC), S. suis; assay type: cell-based; conditions: Streptococcus suis, read-out: MIC Streptococcus suis 3881/S10, strain 3881/S10
Method: as §2

[7] = test system: Stenotrophomonas maltophilia; assay: Antibacterial susceptibility testing (MIC), S. maltophilia; assay type: cell-based; conditions: clinical isolate B32/1, read-out: MIC S. maltophilia B32/1
Method: as §2

[8] = test system: Streptococcus pneumoniae; assay: Antibacterial susceptibility testing (MIC), S. pneumoniae; assay type: cell-based; conditions: strain 49619
Method: as §2

[9] = test system: Acinetobacter baumannii; assay: Antibacterial susceptibility testing (MIC), A. baumannii; assay type: cell-based; conditions: MDR clinical isolate NM8, read-out: MIC A. baumannii NM8
Method: as §2

[10] = Hemolysis assay; assay type: cell-based; conditions: human; erythrocytes from a healthy donor, up to 500 μg/ml, three independent incubations; read-out: LC50 hemolysis
Method: Hemolytic activity against human erythrocytes taken from a healthy donor was measured as previously described. The hemolysis experiments were carried out in accordance with the guidelines of the United Arab Emirates University (UAEU) Research Ethics Review Board. All experimental protocols were approved by the Research Ethics Review Board of UAEU and informed consent was obtained from all donors.

[11] = test system: Escherichia coli; assay: Antibacterial susceptibility testing (MIC/MBC), E. coli; assay type: cell-based
Method: as §1

[12] = molecular target: T2, E. coli PhoR (PhoR^E) (Escherichia coli, UniProt P08400); assay: In vitro autophosphorylation kinase assay with γ-32P-ATP, PhoR^E; assay type: biochemical; conditions: autophosphorylation, one time point (30 sec), 10% DMSO
T2 construct: The catalytic portion (DHp and CA domain) of E. coli PhoR (PhoR^E); made in house; host or cells: E. coli RIL
T2 sequence (P08400 210-425): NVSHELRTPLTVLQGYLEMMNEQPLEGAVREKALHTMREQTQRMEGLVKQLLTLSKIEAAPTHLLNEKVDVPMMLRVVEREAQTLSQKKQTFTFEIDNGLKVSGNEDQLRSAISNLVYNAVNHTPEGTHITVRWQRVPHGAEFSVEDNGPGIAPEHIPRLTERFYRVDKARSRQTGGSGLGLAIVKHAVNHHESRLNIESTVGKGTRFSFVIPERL
Method: as §3

[13] = molecular target: T3, T. maritima HK853 (Thermotoga maritima, UniProt Q9WZV7); assay: In vitro autophosphorylation kinase assay with γ-32P-ATP, HK853; assay type: biochemical; conditions: autophosphorylation, one time point (30 sec), 10% DMSO; read-out: IC50 HK853
T3 sequence (Q9WZV7 232-489): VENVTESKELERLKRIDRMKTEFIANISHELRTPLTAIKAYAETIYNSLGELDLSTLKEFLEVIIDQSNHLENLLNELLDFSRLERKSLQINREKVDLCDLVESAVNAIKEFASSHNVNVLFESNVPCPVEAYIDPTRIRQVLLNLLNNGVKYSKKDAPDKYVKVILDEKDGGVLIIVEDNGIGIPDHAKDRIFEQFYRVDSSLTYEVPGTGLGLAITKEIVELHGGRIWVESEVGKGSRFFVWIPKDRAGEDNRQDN
Method: (§4) To evaluate the inhibitory capacity of selected hits from DSF, SBVS and LBSS in vitro autophosphorylation kinase assays with γ-^32P-ATP were performed as previously described. Ligands were dissolved in 100% DMSO. […] Controls lacking ligands contained an equal concentration of DMSO. Inhibition of autophosphorylation was determined by incubating 0.12 mg/ml (≈4 μM) HK and up to 20 mM fragment in kinase buffer (50 mM Tris HCl, pH 8.5, 50 mM KCl, 5 mM MgCl2, 0.5 mM EDTA and 0.1 mM DTT). Autophosporylation reactions were initiated by addition of 0.1 μCi/μl γ-^32P-ATP containing from 0.03 to 0.06 μM ATP (final concentrations). Autophosphorylation was quenched with 2xSDS-PAGE sample buffer supplemented with 50 mM EDTA. Samples were applied without heating to 15% (w/v) Tris-glycine SDS-polyacrylamide gels. After electrophoresis, the bottoms of the gels were removed to lower the background from the unincorporated radiolabeled ATP. Gels were dried without staining on a Bio-Rad Gel Air drying system and the phosphorylated protein was quantified by phosphor-imaging. Prism GraphPad was used for curve fitting and statistical analysis.

[14] = molecular target: T4, S. aureus PhoR (PhoR^S) (Staphylococcus aureus, UniProt Q2FXN7); assay: Aggregation analysis by native-PAGE, PhoR^S; conditions: 2 mM (S5 and S6 5 mM), 10% DMSO
T4 sequence (Q2FXN7 entry or part of it): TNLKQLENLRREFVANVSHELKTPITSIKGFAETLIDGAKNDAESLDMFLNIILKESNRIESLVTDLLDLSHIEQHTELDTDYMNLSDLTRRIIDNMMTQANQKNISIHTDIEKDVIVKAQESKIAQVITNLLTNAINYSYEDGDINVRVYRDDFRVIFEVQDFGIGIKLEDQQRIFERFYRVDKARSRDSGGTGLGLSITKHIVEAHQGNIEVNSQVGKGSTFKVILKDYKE
Method: (§5) E. coli PhoR and EnvZ, and S. aureus PhoR ([…], final concentration) were prepared in kinase buffer. […] DMSO in the assays was maintained to a final concentration 10% (v/v). After 30 min of incubation at room temperature Native polyacrylamide gel electrophoresis (Native-PAGE) loading buffer was added and samples loaded. Coomassie blue staining was used for protein visualization.

[15] = molecular target: T2, E. coli PhoR (PhoR^E); assay: Aggregation analysis by native-PAGE, PhoR^E; conditions: 2 mM (S5 and S6 5 mM), 10% DMSO
Method: as §5

[16] = molecular target: T4, S. aureus PhoR (PhoR^S); assay: In vitro autophosphorylation kinase assay with γ-32P-ATP, PhoR^S; assay type: biochemical; conditions: IC50 PhoR^S, autophosphorylation, one time point (30 sec), 10% DMSO
Method: as §4

[17] = DSM20044, strain DSM 20044, read-out: MIC S. epidermidis DSM 20044
[18] = Escherichia coli, strain CFT 073, read-out: MIC E. coli CFT 073

NCCc1ccc2c(c1)[nH]c1ccccc12 [F2.3]
MIC ([1]; ATCC reference strain 25293, read-out: MIC S. aureus 25293): 125 µg/mL (≈ 594 µM) | MBC ([1]; DSM20231, strain DSM 20231): > 500 µg/mL | MIC ([1]; MRSA clinical isolate 127/08, read-out: MIC S. aureus 127/08): 250 µg/mL (≈ 1190 µM) | MIC ([1]; MRSA clinical isolate 145/08, read-out: MIC S. aureus 145/08): 250 µg/mL (≈ 1190 µM) | MIC ([1]; MRSA clinical isolate 274/08, read-out: MIC S. aureus 274/08): > 500 µg/mL | MIC ([1]; MRSA, MRSA clinical isolate S908, read-out: MIC S. aureus S908): 250 µg/mL (≈ 1190 µM) | MIC ([1]; MRSA, MRSA clinical isolate T4/6, read-out: MIC S. aureus T4/6): 250 µg/mL (≈ 1190 µM) | MIC ([1]; MRSA, MRSA clinical isolate V4180, read-out: MIC S. aureus V4180): 250 µg/mL (≈ 1190 µM) | MIC ([1]; MRSA, summary over strains, read-out: MICs for the MRSA strains and S. aureus 25293): 125 to 500 µg/mL (≈ 594 to 2380 µM) | MBC ([2]; DSM20044, strain DSM 20044): 63 µg/mL (≈ 300 µM) | MIC [2, 17]: 31 to 500 µg/mL (≈ 147 to 2380 µM) | MIC ([2]; clinical isolate T7/3, read-out: MIC S. epidermidis T7/3): 31 µg/mL (≈ 147 µM) | MIC ([2]; clinical isolate T37/8, read-out: MIC S. epidermidis T37/8): 125 µg/mL (≈ 594 µM) | MIC ([2]; clinical isolate T6119, read-out: MIC S. epidermidis T6119): 125 µg/mL (≈ 594 µM) | MIC ([2]; strain RP62A (biofilm producer), read-out: MIC S. epidermidis RP62A): 125 µg/mL (≈ 594 µM) | MIC ([2]; strain RP62A/1 (non-biofilm producer), read-out: MIC S. epidermidis RP62A/1): 125 µg/mL (≈ 594 µM) | MIC ([2]; summary over strains, read-out: MICs for the S. epidermidis strains): 31 to 250 µg/mL (≈ 147 to 1190 µM) | MIC S. epidermidis DSM 20044 [2]: 31 µg/mL (≈ 147 µM) | MIC [3]: > 500 µg/mL | IC50 ([4]; IC50 WalK): > 2000 µM | MIC [5]: > 500 µg/mL | MIC [6]: > 500 µg/mL | MIC [7]: > 500 µg/mL | MIC [8]: 4 µg/mL (≈ 19 µM) | MIC [9]: > 500 µg/mL | HC50 [10]: > 500 µg/mL | MIC ([11]; Escherichia coli, ATCC25276, strain ATCC 25276, read-out: MIC E. coli ATCC 25276): > 500 µg/mL | MIC [11, 18]: > 500 µg/mL | IC50 ([12]; IC50 PhoR^E): > 2000 µM

CC(=O)Nc1cccc(C(C)NCc2cccc(Br)c2)c1 (centres unmarked) [S6]
MBC ([1]; DSM20231, strain DSM 20231): > 500 µg/mL | MIC ([1]; DSM20231, strain DSM 20231, read-out: MIC S. aureus DSM 20231): > 500 µg/mL | IC50 [13]: > 5000 µM | MBC ([2]; DSM20044, strain DSM 20044): > 500 µg/mL | MIC [2, 17]: 500 µg/mL (≈ 1440 µM) | MIC S. epidermidis DSM 20044 [2]: 500^# μg/ml | IC50 ([4]; IC50 WalK): ~1000 µM | IC50 ([4]; read-out: IC50 WalK): > 1000 µM | HK aggregation, PhoR^S [14]: do not cause HK aggregation | HK aggregation, PhoR^E [15]: do not cause HK aggregation | MBC ([11]; Escherichia coli, strain CFT 073, read-out: MBC E. coli CFT 073): > 500 µg/mL | MIC [11, 18]: 500 µg/mL (≈ 1440 µM) | MIC E. coli CFT 073 ([11]; strain CFT 073): 500^# μg/ml | IC50 ([12]; read-out: IC50 PhoR^E): 372 µM and 370 µM | IC50 [16]: 1140 µM
